# Experiments:
# [1] = test system: 5'-nucleotidase from Crotalus adamenteus; assay: Enzymatic cleavage by 5'-nucleotidase; format: in vitro ADME; conditions: pH 9.0, 24 h, 37° C.; for hydrolysis by 5'-nucleotidase: 2 mg enzyme
# Method: Enzymatic cleavage of the phosphodiester bond of the conjugates was studied by incubating the conjugates (5 μmol) with various enzymes (1.5-3 mg) in appropriate buffer and with plasma (final volume 0.5 ml). An aliquot (200 μl) of the 24 h incubation mixtures was streaked on Whatman 3 MM paper (23×57 cm) with the authentic markers and the paper was developed in Solvent A. The bands were characterized and analyzed semi-quantitatively by UV estimation of the chromatographs. […] The conjugates also remained 60-85 percent intact during the incubation with baboon plasma at 37° C. for 24 h. From the results of these tests, conjugates of this type appear capable of serving as sustained release froms of the parent steroid and nucleoside components thereof.
# The conjugate (5 μmol) was incubated with 1 M Tris-HCl, pH 9.0 and 0.05 M MgSO4 (0.05 ml) and purified 5'-nucleotidase from Crotalus adamenteus (2 mg., Sigma Chemical Co.) in 0.45 ml. of H2 O for 24 h at 37° C.
# [2] = test system: i.p. implanted L1210 leukemia; assay: Comparison of conjugates and ara-C plus steroid combinations, i.p. implanted L1210 leukemic mice; format: in vivo
# Method: Each mouse received 1×10^6 cells intraperitoneally. Doses were administered i.p. once daily to groups of 8 mice (avg. wt. 20 g) for 5 consecutive days beginning 24 hours after tumor implantation. In case of the combination, ara-C and the steroid were given at the same molar concentrations present in the conjugates. Mean survival days were calculated by the equation appearing in the NCI protocol; T/C ratios are reported in percent, i.e (treated/control)×100.
SMILES,hydrolysis by 5'-nucleotidase [1],product ara-C [1] [%],product prednisolone or prednisone [1] [%],Survival Days Mean (Treated) ([2]; 75.0 μmole/kg/day × 5) [days],"Weight change on Day 8 (g/mouse) ([2]; 75.0 μmole/kg/day × 5 (each, for combinations))",T/C ([2]; 114.7 μmol/kg/day) [%],"response vs control in vivo at 75 µmol/kg ([2]; Mus musculus, L1210, ip, 75.0 μmole/kg/day × 5, read-out: % T/C) [%]",Survival Days Mean (Treated) ([2]; 75.4 μmole/kg/day × 5) [days],Weight change on Day 8 (g/mouse) ([2]; 75.4 μmole/kg/day × 5),"response vs control in vivo at 75.4 µmol/kg ([2]; Mus musculus, L1210, ip, 75.4 μmole/kg/day × 5, read-out: % T/C) [%]"
"C[C@]12C=CC(=O)C=C1CC[C@@H]1[C@@H]2[C@@H](O)C[C@@]2(C)[C@H]1CC[C@]2(O)C(=O)CO[P+]([O-])(O)OC[C@H]1O[C@@H](n2ccc(N)nc2=O)[C@@H](O)[C@@H]1O (stereo partly drawn) [Pred-p-ara-C (I), 5'-(Prednisolone-21-phosphoryl)-1-β-D-arabinofuranosylcytosine]",hydrolyzed completely,50,50,19.13,-0.28,178,201,,,
"C[C@]12C=CC(=O)C=C1CC[C@@H]1[C@@H]2C(=O)C[C@@]2(C)[C@H]1CC[C@]2(O)C(=O)CO[P+]([O-])(O)OC[C@H]1O[C@@H](n2ccc(N)nc2=O)[C@@H](O)[C@@H]1O (stereo partly drawn) [Prednisone-p-ara-C (II), 5'-(Prednisone-21-phosphoryl)-1-β-D-arabinofuranosylcytosine]",hydrolyzed completely,50,50,,,,,18.13,-0.30,210

# From patent US4283394A, “Cytotoxic nucleoside-corticosteroid phosphodiesters” (priority 1979, dated 1981)
